Reference: publication PMC8760490, “Discovery of novel furanylbenzamide inhibitors that target oncogenic tyrosine phosphatase SHP2 in leukemia cells” (The Journal of Biological Chemistry, 2021)

Test system: MOLM-13-Cas9-mCherry cells with SHP2 KO
Experiment: Cell viability, MOLM-13 SHP2 CRISPR–Cas9 KO
Format: cell-based
Conditions: 72 h, 30 μM to 58 nM
Method: Finally, we evaluated the selectivity of our top two compounds, SBI-2130 and SBI-4668, on MOLM-13 AML cells in which SHP2 was depleted using CRISPR–Cas9 KO. High-efficiency Cas9-editing MOLM-13 cells were generated by transducing MOLM-13 cells with a Cas9 lentiviral construct. Stable clones were tested for editing efficiency by performing tracking of indels by decomposition analysis ([45]), and these MOLM-13-Cas9 cells were transduced with a lentiviral construct containing an AAVS1 single-guide RNA (sgRNA) and an mCherry reporter for bulk sorting of cells with successful AAVS1 editing. […] Cells were treated with inhibitors at various concentrations (ranging from 30 μM to 58 nM) or vehicle control (DMSO) for 72 h, before cell viability was assessed. […]
For SHP2 KO, dual sgRNAs targeting SHP2 were cloned in the pLentiGuide puro vector (Addgene plasmid no. 52963 from Dr Feng Zhang) using a published protocol ([50]). […] SHP2 KO was evaluated by immunoblotting. […] For SHP2 KO, MOLM-13-Cas9-mCherry cells were seeded in nontreated 6-well plates (2 × 10^6 cells/well in 2.5 ml), with cell numbers determined by trypan blue using the Countess Cell Counter (Thermo Scientific). […] Cell viability was assessed using the ATP-depletion assay CellTiter-Glo as described previously, and data were analyzed using GraphPad Prism software.

Row | Structure (SMILES) | effect on viability of MOLM-13-Cas9-mCherry SHP2 KO cells
1 | O=C(Nc1ccccc1)c1cc(-c2ccc(/C=C3\Sc4ccccc4C3=O)o2)ccc1O [SBI-4668, (Z)-2-Hydroxy-5-(5-((3-oxobenzo[b]thiophen-2(3H)-ylidene)methyl)furan-2-yl)-N-phenylbenzamide] | either completely abrogated or greatly reduced
2 | Nc1ccc(NC(=O)c2cc(-c3ccc(/C=C4\Sc5ccccc5C4=O)o3)ccc2O)cc1 [SBI-2130, (Z)-N-(4-Aminophenyl)-2-hydroxy-5-(5-((3-oxobenzo[b]thiophen-2(3H)-ylidene)methyl)furan-2-yl)benzamide] | either completely abrogated or greatly reduced
